{
  "source": "patent US8470745B2",
  "about": "“Methods and compositions for obtaining and using biologically active multi-protein complexes” (priority 2006, dated 2013)",
  "key": {"NMDAR complexes": {"test_system": "NMDAR complexes", "test": "Activity test on immobilized NMDAR complexes (immunoblotting and immunofluorescence detection)", "assay_type": "biochemical, rat", "settings": "Five mM SOV, 30° C. for 1 hour, vs control", "protocol": "Experiments were performed on cortical tissue obtained from 3 week-old Sprague-Dawley rats. All procedures were conducted in strict adherence with the NIH Guide for the Care and Use of Laboratory Animals. Cortical tissue from 21 day-old rats was solubilized using a syringe in solubilization/immunoprecipitation buffer containing 0.1% Triton X-100, 0.2% β-mercaptoethanol, 50 mM Tris-HCl pH 7.5, 5 mM EDTA, 5 mM EGTA, 10 mg/ml of Sigma protease inhibitor cocktail, 1 mM phenylmethylsulfonyl fluoride. The tissue homogenate was centrifuged (15,000 g for 10 min at 4° C.) to remove insoluble material. The supernatantusprenat was kept at 4° C. and used later for immunoprecipitation. Protein A/G pre-coated 96-well plates (Pierce Biotechnology, Rockford, Ill.) were used for immunoprecipitation of active NMDA receptor complexes. The plates were washed with the solubilization/immunoprecipitation buffer and anti-NR1 antibody (20 μg) was added to each well in 100 μL of extraction buffer. Following a 2 hour incubation at room temperature, the wells were rinsed 3 times with solubilization/immunoprecipitation buffer and 100 μL of supernatant were added to each well. Following 4 hours incubation at 4° C., the wells were washed three times with a reaction buffer containing: 0.2% β-mercaptoethanol, 25 mM Tris-HCl pH 7.5, 30 mM MgCl2, 20 mM MnCl2, 0.5 mM DTT.\nFifty μL of reaction buffer, 500 μM ATP, and the agents to be tested were added to each well. The control wells contained 50 μL of reaction buffer alone or in the presence 500 μM ATP. All samples were incubated at 30° C. for 1 hour. […]\nFor fluorescence detection experiments, black 96-well plates were used to avoid fluorescence spill over. […] Multi-well plates were read on a Cytofluor 2350 fluorescence plate reader using the appropriate filters. […]"}, "GABAA receptor complexes": {"test_system": "GABAA receptor complexes", "test": "Tyrosine phosphorylation in isolated GABAA receptor complexes (Western blotting)", "assay_type": "biochemical", "settings": "Five mM SOV, 30° C. for 1 hour, hippocampus tissue, vs control", "protocol": "To test the effect of PTP inhibitor SOV on isolated GABA receptor complexes, hippocampus tissue was removed and homogenized with the solubilization/immunoprecipitation buffer described above. GABAA receptor complexes were immunoprecipitated using anti-β2/β3 antibody (Upstate Biotechnology, Lake Placid, N.Y., USA) as described in Example 1. The immobilized complexes were rinsed and solubilization/immunoprecipitation buffer was replaced with reaction buffer. This reaction buffer was added to all the wells. Control wells contained only the reaction buffer or reaction buffer and ATP alone. Five mM of SOV was added to the rest of the wells and incubated at 30° C. for 1 hour. The reaction was stopped with a blocking buffer and samples rinsed and subjected to Western blotting with anti-pTyr and anti-β2/β3 antibodies."}, "[1]": {"test_system": "α-7nACh receptor complexes", "test": "Tyrosine phosphorylation in isolated α-7nACh receptor complexes (Western blotting)", "assay_type": "biochemical", "settings": "Five mM SOV, 30° C. for 1 hour, hippocampus tissue, vs control", "protocol": "To test the effect of PTP inhibitor SOV on isolated a-7nACh receptor complexes, hippocampus tissue was dissected from the brain and homogenized with the solubilization/immunoprecipitation buffer described above, with some modifications. The solubilization buffer contained 0.05% TritonX-100 instead of 0.1% as used in Example 1. Immobilized complexes were rinsed and solubilization/immunoprecipitation buffer was replaced with reaction buffer. This reaction buffer was added to all the wells. Control wells contained only the reaction buffer or reaction buffer and ATP alone. Five mM SOV was added to rest of the wells and incubated at 30° C. for 1 hour. The reaction was stopped with a blocking buffer and samples rinsed and subjected to Western blotting with anti-pTyr, anti-α7 antibodies."}, "[2]": {"test_system": "HCN4 ion channel complexes", "test": "Tyrosine phosphorylation in isolated HCN4 ion channel complexes", "assay_type": "biochemical", "settings": "Five mM SOV, 30° C. for 1 hour; rat ventricles; vs control", "protocol": "To test the effect of PTP inhibitor SOV, rat ventricles were dissected and homogenized in solubilization/immunoprecipitation buffer and subjected to co-immunoprecipitation by incubation with anti-HCN4 polyclonal antibody (Alpha Diagnostic International, San Antonio, Tex.), as described in Example 1. Immobilized complexes were rinsed and solubilization/immunoprecipitation buffer was replaced with reaction buffer. This reaction buffer was added to all the wells. Control wells contained only the reaction buffer or reaction buffer and ATP alone. Five mM SOV was added to rest of the wells and incubated at 30° C. for 1 hour. The reaction was stopped with blocking buffer and samples were rinsed and subjected to Western blotting or fluorescence analysis using anti-pTyr and anti-HCN4 antibodies."}, "[3]": {"settings": "immunoblotting and immunofluorescence"}},
  "data": [
    {"smiles": "[Na+].[Na+].[Na+].[O]=[V]([O-])([O-])[O-]", "note": "[SOV, sodium orthovanadate]", "values": [
      {"measurement": "amount of NR2A/B in the receptor (ratio NR2A/B to NR1)", "setting": "NMDAR complexes; [3]", "value": "decreased"},
      {"measurement": "tyrosine phosphorylation of NR2A/B subunits (ratio of pTyr to NR2A/B)", "setting": "NMDAR complexes; [3]", "value": "increased"},
      {"measurement": "amount of PSD-95 in the receptor (ratio PSD-95 to NR1)", "setting": "NMDAR complexes", "value": "decreased"},
      {"measurement": "tyrosine phosphorylation of β2/β3 subunits (ratio of pTyr to β2/β3)", "setting": "GABAA receptor complexes", "value": "increased"},
      {"measurement": "tyrosine phosphorylation of α-7 subunits in the receptor (FIG. 5: ratio of pTyr to α-7)", "setting": "[1]", "value": "increased"},
      {"measurement": "tyrosine phosphorylation of HCN4 subunits (ratio of pTyr to HCN4)", "setting": "[2]", "value": "increased"}
    ]}
  ]
}
